US6444617B1, “Fused-heterocycle dicarboxylic acid diamide derivatives or salts thereof, herbicide and usage thereof” (Nihon Nohyaku Co., Ltd., priority 1998, dated 2002)

Tests used:
Assay type in all cases: in vivo
[1] = test system: monochoria (Monochoria vaginalis Presl); assay: Test Example 2: herbicidal effect on paddy field weeds after emergence; conditions: Dosage 5 kg/ha; one-leaved stage; 21 days after treatment
How it was run: (§1)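 Weeds were sown in 1/10000 are pots of soil flooded to paddy conditions and grown to the one-leaf stage, then the soil was treated with a solution of compound at a predetermined dosage.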

[2] = test system: bulrush (Scirpus juncoides Roxb.); assay: as above; conditions: Dosage 5 kg/ha; one-leaved stage; 21 days after treatment
How it was run: as §1

[3] = test system: barnyard grass (Echinochloa crus-galli Beauv.); assay: as above; conditions: Dosage 5 kg/ha; one-leaved stage; 21 days after treatment
How it was run: as §1

[4] = test system: forxtail grass (Alopecurus aequalis var. amurensis Ohwi), Am; assay: Test Example 3: herbicidal effect on upland weeds before emergence; conditions: foxtail grass, dosage 5 kg/ha
How it was run: (§2)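 Herbicidal activity was rated from kill rate determined 14 days post-spray, the compound having been applied pre-emergence as a liquid agent.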

[5] = test system: barnyard grass (Echinochloa crus-galli Beauv.), Ec; assay: as above; conditions: dosage 5 kg/ha
How it was run: as §2

[6] = test system: velvetleaf (Abutilon theophtasti L.), At; assay: as above; conditions: dosage 5 kg/ha
How it was run: as §2

[7] = test system: cleavers (Galium aparine L.), Ga; assay: as above; conditions: dosage 5 kg/ha
How it was run: as §2

[8] = test system: bird's eye speedwell (Veronica persica Poir.), Vp; assay: as above; conditions: dosage 5 kg/ha
How it was run: as §2

[9] = test system: cocklebur (Xanthium strumarium L.), Xs; assay: as above; conditions: dosage 5 kg/ha
How it was run: as §2

[10] = test system: bulrush (Scirpus juncoides Roxb.); assay: Test Example 1: herbicidal effect on paddy field weeds before emergence; conditions: Dosage 5 kg/ha
How it was run: (§3)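 Grading reflects percent control relative to untreated plots, evaluated three weeks post-application. Treatment was a soil application of compound solution, predetermined dose, made to paddy-state pots before weed seeds germinated.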

[11] = test system: barnyard grass (Echinochloa crus-galli Beauv.); assay: as above; conditions: Dosage 5 kg/ha
How it was run: as §3

[12] = test system: wheat; assay: Test Example 4: phytotoxicity to upland crop plants, treatment after emergence; conditions: dosage 5 kg/ha, sprayed after emergence, judged 14 days after treatment
How it was run: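 Upland weeds and crop plants (soybean, wheat) are grown from seed in soil until they reach given leaf stages, then treated by spraying with the compound-containing agent; effects are judged two weeks later.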

[13] = test system: soybean plant; assay: as above; conditions: dosage 5 kg/ha, sprayed after emergence, judged 14 days after treatment
How it was run: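 Seeds sown in soil and covered. Plants raised to specified leaf stages. Agent with test compound at a prescribed concentration sprayed. Herbicidal effect and crop damage scored after 14 days as weed-killing rate.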

[14] = test system: forxtail grass (Alopecurus aequalis var. amurensis Ohwi), Am; assay: Test Example 4: herbicidal effect on upland weeds after emergence; conditions: dosage 5 kg/ha; sprayed after emergence; judged 14 days after treatment
How it was run: (§4)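 Scores of weed-killing rate, with crop phytotoxicity, come from inspection 14 days after plants in soil vats, grown to specified leaf stages, are sprayed with a formulation holding the compound at a prescribed concentration.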

[15] = test system: barnyard grass (Echinochloa crus-galli Beauv.), Ec; assay: as above; conditions: dosage 5 kg/ha; sprayed after emergence; judged 14 days after treatment
How it was run: as §4

[16] = test system: velvetleaf (Abutilon theophtasti L.), At; assay: as above; conditions: dosage 5 kg/ha; sprayed after emergence; judged 14 days after treatment
How it was run: as §4

[17] = test system: cleavers (Galium aparine L.), Ga; assay: as above; conditions: dosage 5 kg/ha; sprayed after emergence; judged 14 days after treatment
How it was run: as §4

[18] = test system: bird's eye speedwell (Veronica persica Poir.), Vp; assay: as above; conditions: dosage 5 kg/ha; sprayed after emergence; judged 14 days after treatment
How it was run: as §4

[19] = test system: cocklebur (Xanthium strumarium L.), Xs; assay: as above; conditions: dosage 5 kg/ha; sprayed after emergence; judged 14 days after treatment
How it was run: as §4

[20] = test system: wheat (Wh); assay: Test Example 3: phytotoxicity to upland crop plants, treatment before emergence; conditions: dosage 5 kg/ha
How it was run: (§5)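 Compound formulated as a liquid agent at a prescribed concentration is sprayed before crop emergence. After fourteen days, damage to soybean and wheat is examined and rated by a judgment criterion.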

[21] = test system: soybean plant (So); assay: as above; conditions: dosage 5 kg/ha
How it was run: as §5

SMILES: CCCNC(=O)c1nc2c(cc1C(=O)Nc1c(CC)ccc(Cl)c1CC)COCC2 [Compound No. 462, 3-(3-Chloro-2,6-diethylphenyl)-aminocarbonyl-7,8-dihydro-5H-pyrano[4,3-b]pyridine-2-carboxylic Acid n-Propylamide]
- Post-emergence treatment Monochoria (herbicidal effect) [1]: 5 (Weed-killing rate is 100%.)
- Post-emergence treatment Bulrush (herbicidal effect) [2]: 5 (Weed-killing rate is 100%.)
- Post-emergence treatment Barnyard grass (herbicidal effect) [3]: 5 (Weed-killing rate is 100%.)
- Herbicidal effect Am [4]: 5 (Weed-killing rate is 100%.)
- Herbicidal effect Ec [5]: 5 (Weed-killing rate is 100%.)
- Herbicidal effect At [6]: 5 (Weed-killing rate is 100%.)
- Herbicidal effect Ga [7]: 5 (Weed-killing rate is 100%.)
- Herbicidal effect Vp [8]: 5 (Weed-killing rate is 100%.)
- Herbicidal effect Xs [9]: 5 (Weed-killing rate is 100%.)
- Pre-emergence treatment Bulrush (herbicidal effect) [10]: 5 (Weed-killing rate is 100%.)
- Pre-emergence treatment Barnyard grass (herbicidal effect) [11]: 5 (Weed-killing rate is 100%.)
- Phytotoxicity Wh [12]: 5 (Crop-killing rate is 100%.)
- Phytotoxicity So [13]: 5 (Crop-killing rate is 100%.)
- Herbicidal effect Am [14]: 5 (Weed-killing rate is 100%.)
- Herbicidal effect Ec [15]: 5 (Weed-killing rate is 100%.)
- Herbicidal effect At [16]: 5 (Weed-killing rate is 100%.)
- Herbicidal effect Ga [17]: 5 (Weed-killing rate is 100%.)
- Herbicidal effect Vp [18]: 5 (Weed-killing rate is 100%.)
- Herbicidal effect Xs [19]: 5 (Weed-killing rate is 100%.)
- Phytotoxicity Wh [20]: 5 (Crop-killing rate is 100%.)
- Phytotoxicity So [21]: 5 (Crop-killing rate is 100%.)

SMILES: CCc1ccc(Cl)c(CC)c1NC(=O)c1nc2ccccc2nc1C(=O)NC1CCCC1 [compound 1315]
- Post-emergence treatment Monochoria (herbicidal effect) [1]: 5 (Weed-killing rate is 100%.)
- Post-emergence treatment Bulrush (herbicidal effect) [2]: 5 (Weed-killing rate is 100%.)
- Post-emergence treatment Barnyard grass (herbicidal effect) [3]: 5 (Weed-killing rate is 100%.)
- Herbicidal effect Am [4]: 5 (Weed-killing rate is 100%.)
- Herbicidal effect Ec [5]: 5 (Weed-killing rate is 100%.)
- Herbicidal effect At [6]: 5 (Weed-killing rate is 100%.)
- Herbicidal effect Ga [7]: 5 (Weed-killing rate is 100%.)
- Herbicidal effect Vp [8]: 5 (Weed-killing rate is 100%.)
- Herbicidal effect Xs [9]: 5 (Weed-killing rate is 100%.)
- Pre-emergence treatment Bulrush (herbicidal effect) [10]: 5 (Weed-killing rate is 100%.)
- Pre-emergence treatment Barnyard grass (herbicidal effect) [11]: 5 (Weed-killing rate is 100%.)
- Phytotoxicity Wh [12]: 5 (Crop-killing rate is 100%.)
- Phytotoxicity So [13]: 5 (Crop-killing rate is 100%.)
- Herbicidal effect Am [14]: 5 (Weed-killing rate is 100%.)
- Herbicidal effect Ec [15]: 5 (Weed-killing rate is 100%.)
- Herbicidal effect At [16]: 5 (Weed-killing rate is 100%.)
- Herbicidal effect Ga [17]: 5 (Weed-killing rate is 100%.)
- Herbicidal effect Vp [18]: 5 (Weed-killing rate is 100%.)
- Herbicidal effect Xs [19]: 5 (Weed-killing rate is 100%.)
- Phytotoxicity Wh [20]: 5 (Crop-killing rate is 100%.)
- Phytotoxicity So [21]: 5 (Crop-killing rate is 100%.)

SMILES: CCCNC(=O)c1nc2ccn(C)c2cc1C(=O)Nc1c(CC)ccc(Cl)c1CC [compound 907]
- Post-emergence treatment Monochoria (herbicidal effect) [1]: 5 (Weed-killing rate is 100%.)
- Post-emergence treatment Bulrush (herbicidal effect) [2]: 5 (Weed-killing rate is 100%.)
- Post-emergence treatment Barnyard grass (herbicidal effect) [3]: 5 (Weed-killing rate is 100%.)
- Herbicidal effect Am [4]: 5 (Weed-killing rate is 100%.)
- Herbicidal effect Ec [5]: 5 (Weed-killing rate is 100%.)
- Herbicidal effect At [6]: 5 (Weed-killing rate is 100%.)
- Herbicidal effect Ga [7]: 5 (Weed-killing rate is 100%.)
- Herbicidal effect Vp [8]: 5 (Weed-killing rate is 100%.)
- Herbicidal effect Xs [9]: 5 (Weed-killing rate is 100%.)
- Pre-emergence treatment Bulrush (herbicidal effect) [10]: 5 (Weed-killing rate is 100%.)
- Pre-emergence treatment Barnyard grass (herbicidal effect) [11]: 5 (Weed-killing rate is 100%.)
- Phytotoxicity Wh [12]: 5 (Crop-killing rate is 100%.)
- Phytotoxicity So [13]: 4 (Crop-killing rate is 90-99%.)
- Herbicidal effect Am [14]: 5 (Weed-killing rate is 100%.)
- Herbicidal effect Ec [15]: 5 (Weed-killing rate is 100%.)
- Herbicidal effect At [16]: 5 (Weed-killing rate is 100%.)
- Herbicidal effect Ga [17]: 5 (Weed-killing rate is 100%.)
- Herbicidal effect Vp [18]: 5 (Weed-killing rate is 100%.)
- Herbicidal effect Xs [19]: 5 (Weed-killing rate is 100%.)
- Phytotoxicity Wh [20]: 5 (Crop-killing rate is 100%.)
- Phytotoxicity So [21]: 4 (Crop-killing rate is 90-99%.)

SMILES: CCCNC(=O)c1cc2c(nc1C(=O)Nc1c(CC)ccc(Cl)c1CC)[S+]([O-])CC2 (stereo not drawn) [Compound No. 1028]
- Post-emergence treatment Monochoria (herbicidal effect) [1]: 5 (Weed-killing rate is 100%.)
- Post-emergence treatment Bulrush (herbicidal effect) [2]: 5 (Weed-killing rate is 100%.)
- Post-emergence treatment Barnyard grass (herbicidal effect) [3]: 5 (Weed-killing rate is 100%.)
- Herbicidal effect Am [4]: 5 (Weed-killing rate is 100%.)
- Herbicidal effect Ec [5]: 5 (Weed-killing rate is 100%.)
- Herbicidal effect At [6]: 5 (Weed-killing rate is 100%.)
- Herbicidal effect Ga [7]: 5 (Weed-killing rate is 100%.)
- Herbicidal effect Vp [8]: 5 (Weed-killing rate is 100%.)
- Herbicidal effect Xs [9]: 5 (Weed-killing rate is 100%.)
- Pre-emergence treatment Bulrush (herbicidal effect) [10]: 5 (Weed-killing rate is 100%.)
- Pre-emergence treatment Barnyard grass (herbicidal effect) [11]: 5 (Weed-killing rate is 100%.)
- Phytotoxicity Wh [12]: 5 (Crop-killing rate is 100%.)
- Phytotoxicity So [13]: 4 (Crop-killing rate is 90-99%.)
- Herbicidal effect Am [14]: 5 (Weed-killing rate is 100%.)
- Herbicidal effect Ec [15]: 5 (Weed-killing rate is 100%.)
- Herbicidal effect At [16]: 5 (Weed-killing rate is 100%.)
- Herbicidal effect Ga [17]: 4 (Weed-killing rate is 90-99%.)
- Herbicidal effect Vp [18]: 5 (Weed-killing rate is 100%.)
- Herbicidal effect Xs [19]: 5 (Weed-killing rate is 100%.)
- Phytotoxicity Wh [20]: 5 (Crop-killing rate is 100%.)
- Phytotoxicity So [21]: 4 (Crop-killing rate is 90-99%.)
